Results taken from article PMC8042770, “Odorant Receptors for Detecting Flowering Plant Cues Are Functionally Conserved across Moths and Butterflies” (Molecular Biology and Evolution, 2020).
pEC50: −log10 of the molar value. Read-outs that look alike come from different tables or passages of the source. Values belong to the compound of their own block, whether it stands above or below them.

Legend:
HarmOR12 = HarmOR12 (Helicoverpa armigera, UniProt A0A172QGF5); test: Xenopus oocyte two-electrode voltage clamp, HarmOR12 + Orco; assay type: cell-based
Excerpt: (§1) In order to expand our analysis on the response properties of HarmORs, we conducted dose–response analyses for the 28 functional HarmORs. […] Many of these terpenes have been proposed to be defensive chemicals of plants.
(§2) Briefly, the full-length gene of each OR and Orco were subcloned into the eukaryotic expression vector pT7TS. cRNAs were generated from linearized expression vectors using the mMESSAGE mMACHINE T7 kit (Ambion, Austin, TX). […] The respective Orcos of different species were used for functional studies of OR42 orthologs except for the four butterfly species (V. tameamea, P. xuthus, D. plexippus, and P. rapae), in which we used the Orco from P. xuthus.
(§3) Stock solutions of each odorant were prepared at 1 M using DMSO as a solvent, and each odorant was diluted in 1× Ringer’s solution to the indicated concentrations for electrophysiological recording. For functional screening of each HarmOR, a panel of 67 odorants belonging to three types of chemical classes: terpenes, aromatics, and aliphatics (short-chain fatty acid) were used (supplementary table S1, Supplementary Material online). For functional studies of OR42 orthologs from different species, six odorants including PAA, benzaldehyde, (E)-2-hexen-1-al, cinnamaldehyde, 2-phenylethanol, and heptanal were used.

HarmOR36 = HarmOR36 (Helicoverpa armigera, UniProt A0A7T3N0K7); test: Xenopus oocyte two-electrode voltage clamp, HarmOR36 + Orco; assay type: cell-based; details: dose response in oocytes, unit M
Method: (§4) In order to expand our analysis on the response properties of HarmORs, we conducted dose–response analyses for the 28 functional HarmORs. […] Six HarmORs (OR3, 22, 48, 50, 56, and 66) could not be activated by any ligand at 10^−5 M. For the other 22 HarmORs, dose–response curves were generated and EC50 values of their major ligands were calculated (fig. 2A and supplementary table S2, Supplementary Material online). The HarmOR repertoire was highly efficient in terpene detection, since the lowest EC50 values were obtained for such compounds. Many of these terpenes have been proposed to be defensive chemicals of plants. […] DMNT is also one of the oviposition deterring compounds found in larval frass of some Lepidoptera species such as S. littoralis ([Anderson et al. 1993]).
(§5) Functional characterization of individual ORs was performed by heterologous expression in Xenopus oocytes combined with a two-electrode voltage-clamp system ([Wang et al. 2010]). Briefly, the full-length gene of each OR and Orco were subcloned into the eukaryotic expression vector pT7TS. cRNAs were generated from linearized expression vectors using the mMESSAGE mMACHINE T7 kit (Ambion, Austin, TX). Then, the cRNA mixture of ORx and Orco (27.6 ng each) was injected (Nanoliter 2010, WPI Inc., Sarasota, FL) into oocytes (stage V–VII). The respective Orcos of different species were used for functional studies of OR42 orthologs except for the four butterfly species (V. tameamea, P. xuthus, D. plexippus, and P. rapae), in which we used the Orco from P. xuthus. After incubation in nutrient solution at 18 °C for 3–5 days, the response profile of each oocyte to multiple plant odorants was recorded via a two-electrode voltage clamp (OC-725C oocyte clamp, Warner Instruments, Hamden, CT) at a holding potential of −80 mV. Data were acquired by using a Digidata 1440 A and were analyzed by pCLAMP 10.2 software (Axon Instruments Inc., Union City, CA).
as §3

HarmOR31 = HarmOR31 (Helicoverpa armigera, UniProt A0A7T3N2E9); test: Xenopus oocyte two-electrode voltage clamp, HarmOR31 + Orco; assay type: cell-based; details: HarmOR31; dose response in oocytes; unit M; read-out: EC50
Excerpt: as §1, §2, §3

HarmOR59 = HarmOR59 (Helicoverpa armigera, UniProt A0A7T3KAU6); test: Xenopus oocyte two-electrode voltage clamp, HarmOR59 + Orco; assay type: cell-based
Method: as §4, §5, §3

HarmOR52 = HarmOR52 (Helicoverpa armigera, UniProt A0A7T3KAH2); test: Xenopus oocyte two-electrode voltage clamp, HarmOR52 + Orco; assay type: cell-based
Method: as §4, §5, §3

HarmOR repertoire = test: Responses of the 28 functional HarmORs across odorant doses (PCA of oocyte currents); assay type: cell-based, Helicoverpa armigera; details: odorant 10^−7 M
Excerpt: Vectors quantifying the responses of the 28 ORs to each odorant were projected onto a 3D landscape. This 3D representation captured 78.34% (10^−4 M), 65.11% (10^−5 M), 68.89% (10^−6 M), and 84.52% (10^−7 M) of the variation in the original 28D data set across different odorant concentrations. […] In addition, the capacity of the H. armigera odor space was highly dependent on odorant concentration. As the concentrations of odorants decreased, their positions in the odor space converged, with the ability to discriminate different odorants diminishing.
as §5, §3
Graphs and data statistics of OR response spectra, dose responses, EAG, and behavioral experiments were generated by Prism 7 (GraphPad Software, La Jolla, CA). A heat map was generated in Excel 2010 (Microsoft Corporation, WA). […] For tuning breadth analysis, the kurtosis values (K) were calculated by SPSS 22 (SPSS Inc., Chicago, IL) and were used to define the tuning spectra width, where smaller K values represent broader tuning spectra (fig. 1B). […]

HarmOR60 = molecular target: T1, HarmOR60 (Helicoverpa armigera, UniProt A0A7T3N1B9); test: Xenopus oocyte two-electrode voltage clamp, HarmOR60 + Orco; assay type: cell-based; details: HarmOR60; dose response in oocytes; unit M
T1 sequence (A0A7T3N1B9 1-391): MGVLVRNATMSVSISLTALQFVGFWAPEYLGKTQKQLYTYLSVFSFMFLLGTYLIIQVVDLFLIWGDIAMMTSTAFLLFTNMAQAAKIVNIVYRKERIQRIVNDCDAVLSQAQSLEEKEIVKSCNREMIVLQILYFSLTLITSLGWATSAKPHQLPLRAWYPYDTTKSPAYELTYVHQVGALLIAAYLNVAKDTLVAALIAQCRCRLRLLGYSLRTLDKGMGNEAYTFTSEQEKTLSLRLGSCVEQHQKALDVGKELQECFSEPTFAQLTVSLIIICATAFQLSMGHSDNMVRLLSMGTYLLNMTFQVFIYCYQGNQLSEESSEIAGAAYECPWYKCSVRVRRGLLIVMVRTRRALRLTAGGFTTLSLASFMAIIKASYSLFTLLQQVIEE
Method: as §4
as §5, with “CA). […]” for “CA).”

HarmOR40 = molecular target: T2, HarmOR40 (Helicoverpa armigera, UniProt A0A7T3KBF4); test: Xenopus oocyte two-electrode voltage clamp, HarmOR40 + Orco; assay type: cell-based
T2 sequence (A0A7T3KBF4 1-401): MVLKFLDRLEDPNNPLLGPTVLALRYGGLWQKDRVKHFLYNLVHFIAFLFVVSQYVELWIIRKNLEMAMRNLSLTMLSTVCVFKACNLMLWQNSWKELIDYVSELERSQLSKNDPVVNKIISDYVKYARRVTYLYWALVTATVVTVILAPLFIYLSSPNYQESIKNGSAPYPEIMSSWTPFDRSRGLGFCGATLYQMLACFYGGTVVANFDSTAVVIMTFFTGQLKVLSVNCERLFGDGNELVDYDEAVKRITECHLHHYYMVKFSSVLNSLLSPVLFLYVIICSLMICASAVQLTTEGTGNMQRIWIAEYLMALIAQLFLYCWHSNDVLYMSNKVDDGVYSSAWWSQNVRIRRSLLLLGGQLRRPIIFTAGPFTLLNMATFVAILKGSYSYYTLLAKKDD
Method: as §4, §5, §3

HarmOR42 = HarmOR42 (Helicoverpa armigera, UniProt A0A7T3KAF6); test: Xenopus oocyte two-electrode voltage clamp, HarmOR42 + Orco; assay type: cell-based; details: 67 odorants at 10^−4 M
Excerpt: In preliminary screening, we used a high dosage (10^−4 M) of odorants. […] Most functional ORs responded robustly to multiple odorants. The strongest response (up to ∼6,000 nanoampere, nA) we detected was that of HarmOR42 toward the aromatic compound PAA. Further, the response profiles of the 28 HarmORs appeared to be highly differentiated, with no apparent overlap in their tuning spectra (with the exception of HarmOR12 and 36) according to functional cluster analysis (fig. 1A).
as §4, §5, §3

[1] = test system: H. armigera moth antennae; test: Electroantennography (EAG), wild-type vs HarmOR42 knock-out moths; assay type: in vivo, Helicoverpa armigera; details: single odorants, 1 μg
Excerpt: We next conducted a loss-of-function study by generating a HarmOR42-lacking H. armigera strain by CRISPR/Cas9 targeting the first coding exon. Homozygous mutants were obtained with a large segment deletion of 203 bp and a 6-bp nonhomologous insertion in the genome (fig. 6B), introducing a premature stop codon in the coding sequence. […] The most likely hypothesis is that HarmOR42 is not the major receptor for sensing this compound in H. armigera. As a control, we tested the response of male moths to the sex pheromone component Z11-16: Ald that is not a ligand of HarmOR42. As expected, we observed no difference between the EAG responses of mutant and wild-type moths to this compound.
The antennae of 2- to 3-day-old virgin male and female moths were cut at the base of the flagellum. After removing the tip, one antenna was inserted between two glass electrodes filled with 0.1 M KCl solution. In each test, a 10-μl solution of each odorant was added onto a piece of filter paper (0.5 cm × 0.5 cm) and then inserted into a Pasteur pipette. About 100 ng/μl stock solutions of individual odorants and different doses of the mixture IAC were prepared with paraffin oil. A continuous airflow of 30 ml/s was produced by a stimulus controller (CS-55, Syntech, Kirchzarten, Germany). Odor stimulation was controlled by a puff of purified air (0.2 s at 10 ml/s airflow) from the CS-55. EAG signals were amplified with a 10× AC/DC headstage preamplifier (Syntech) and further acquired with an Intelligent Data Acquisition Controller (IDAC-4-USB, Syntech) ([Cao et al. 2016]). The signals were recorded, monitored, and analyzed using Syntech EAG-software (Syntech, Germany). The EAG response values for each compound were calculated by subtracting the value of the same antennae corresponding to a solvent blank of paraffin oil.

[2] = HarmOR12, dose response in oocytes, unit M, read-out: EC50

Sequence of HarmOR59 (A0A7T3KAU6 entry or part of it): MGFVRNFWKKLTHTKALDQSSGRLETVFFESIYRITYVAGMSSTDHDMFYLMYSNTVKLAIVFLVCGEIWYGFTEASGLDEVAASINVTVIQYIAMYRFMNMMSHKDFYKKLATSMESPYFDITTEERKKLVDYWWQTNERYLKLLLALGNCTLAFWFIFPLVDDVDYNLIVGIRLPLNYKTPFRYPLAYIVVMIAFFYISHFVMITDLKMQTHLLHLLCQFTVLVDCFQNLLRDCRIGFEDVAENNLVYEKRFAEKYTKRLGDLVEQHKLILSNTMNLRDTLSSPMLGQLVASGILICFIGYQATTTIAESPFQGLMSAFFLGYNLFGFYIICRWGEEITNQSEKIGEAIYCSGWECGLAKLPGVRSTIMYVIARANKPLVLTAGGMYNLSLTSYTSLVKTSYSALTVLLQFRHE
Sequence of HarmOR12 (A0A172QGF5 entry or part of it): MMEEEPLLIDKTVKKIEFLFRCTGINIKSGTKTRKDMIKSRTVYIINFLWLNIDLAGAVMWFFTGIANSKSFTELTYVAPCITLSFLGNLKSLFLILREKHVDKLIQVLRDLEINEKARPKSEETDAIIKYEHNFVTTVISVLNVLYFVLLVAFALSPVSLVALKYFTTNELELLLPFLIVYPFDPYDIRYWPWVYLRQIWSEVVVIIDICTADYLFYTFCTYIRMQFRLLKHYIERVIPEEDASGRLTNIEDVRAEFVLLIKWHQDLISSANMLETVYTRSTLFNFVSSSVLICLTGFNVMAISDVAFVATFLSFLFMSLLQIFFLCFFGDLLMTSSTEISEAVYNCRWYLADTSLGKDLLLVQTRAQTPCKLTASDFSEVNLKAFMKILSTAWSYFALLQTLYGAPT
Sequence of HarmOR52 (A0A7T3KAH2 entry or part of it): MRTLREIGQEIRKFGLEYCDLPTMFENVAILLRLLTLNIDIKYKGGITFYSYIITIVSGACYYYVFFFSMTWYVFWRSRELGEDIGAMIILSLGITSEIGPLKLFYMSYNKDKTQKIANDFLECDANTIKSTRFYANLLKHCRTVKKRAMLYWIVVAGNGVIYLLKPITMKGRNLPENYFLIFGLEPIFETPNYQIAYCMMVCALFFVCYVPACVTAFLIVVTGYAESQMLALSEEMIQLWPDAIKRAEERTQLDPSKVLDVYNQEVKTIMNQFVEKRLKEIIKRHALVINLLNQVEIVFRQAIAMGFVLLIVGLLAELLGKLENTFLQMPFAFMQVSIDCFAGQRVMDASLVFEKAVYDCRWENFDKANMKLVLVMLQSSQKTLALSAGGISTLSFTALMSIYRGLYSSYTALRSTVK
Sequence of HarmOR36 (A0A7T3N0K7 entry or part of it): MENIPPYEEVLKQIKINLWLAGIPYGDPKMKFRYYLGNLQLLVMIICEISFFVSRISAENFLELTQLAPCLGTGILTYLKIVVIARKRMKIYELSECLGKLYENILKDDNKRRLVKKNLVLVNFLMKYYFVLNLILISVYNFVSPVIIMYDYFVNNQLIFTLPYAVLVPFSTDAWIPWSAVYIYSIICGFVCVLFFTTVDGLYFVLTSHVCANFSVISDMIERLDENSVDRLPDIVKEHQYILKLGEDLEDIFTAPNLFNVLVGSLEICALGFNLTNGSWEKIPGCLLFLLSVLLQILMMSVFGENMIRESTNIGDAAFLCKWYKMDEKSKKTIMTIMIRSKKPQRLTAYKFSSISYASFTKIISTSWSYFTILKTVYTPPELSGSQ
Sequence of HarmOR42 (A0A7T3KAF6 entry or part of it): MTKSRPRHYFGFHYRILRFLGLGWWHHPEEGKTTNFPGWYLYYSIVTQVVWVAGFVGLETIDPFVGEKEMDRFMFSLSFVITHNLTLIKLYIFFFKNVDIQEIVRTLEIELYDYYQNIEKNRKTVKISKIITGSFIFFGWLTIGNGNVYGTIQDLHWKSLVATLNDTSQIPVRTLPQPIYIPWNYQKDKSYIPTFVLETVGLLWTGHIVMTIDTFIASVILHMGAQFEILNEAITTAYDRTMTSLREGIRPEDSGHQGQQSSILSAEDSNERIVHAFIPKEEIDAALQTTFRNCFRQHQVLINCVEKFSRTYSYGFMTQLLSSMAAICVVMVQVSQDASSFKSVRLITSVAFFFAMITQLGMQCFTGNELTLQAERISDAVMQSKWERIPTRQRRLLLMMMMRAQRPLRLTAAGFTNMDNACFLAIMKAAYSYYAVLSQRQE
Sequence of HarmOR31 (A0A7T3N2E9 entry or part of it): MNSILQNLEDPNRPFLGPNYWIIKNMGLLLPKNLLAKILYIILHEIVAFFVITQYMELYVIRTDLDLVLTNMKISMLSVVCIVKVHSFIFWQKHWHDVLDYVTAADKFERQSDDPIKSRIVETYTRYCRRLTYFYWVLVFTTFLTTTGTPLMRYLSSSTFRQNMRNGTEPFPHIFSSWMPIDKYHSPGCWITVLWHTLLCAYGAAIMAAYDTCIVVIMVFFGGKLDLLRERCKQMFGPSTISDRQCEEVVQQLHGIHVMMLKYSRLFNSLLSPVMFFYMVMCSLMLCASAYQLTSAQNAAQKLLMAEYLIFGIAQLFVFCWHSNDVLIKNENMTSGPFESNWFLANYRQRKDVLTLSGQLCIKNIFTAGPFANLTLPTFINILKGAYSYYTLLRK

Compound: CCc1ccc(C=O)cc1 [4-Ethylbenzaldehyde]
pEC50 (HarmOR59; HarmOR59, dose response in oocytes, unit M, read-out: EC50): 2.92

Compound: CC/C=C\CCO [(Z)-3-hexen-1-ol]
pEC50 (HarmOR52): 4.63
pEC50 (HarmOR59): 2.73

Compound: CCC/C=C/CO [(E)-2-Hexen-1-ol]
pEC50 (HarmOR52): 4.62
pEC50 (HarmOR59): 2.92

Compound: C=CC(C)(O)CCC=C(C)C (stereo not shown) [Linalool]
pEC50 (HarmOR12): 4.67
pEC50 (HarmOR36; EC50, HarmOR36): 5.94
response of the HarmOR repertoire (HarmOR repertoire): still responded

Compound: C[C@@H]1CC[C@H]2C(C)(C)[C@H]3C[C@@]12CC[C@@]3(C)O [Cedrol]
pEC50 (HarmOR60): 5.07

Compound: CCCC/C=C\CCCCCCCCCC=O [Z11-16: Ald]
ligand tuning of HarmOR42 (HarmOR42): not a ligand
EAG response of HarmOR42 knock-out mutants compared with wild-type moths [1]: no difference

Second part, the compound after the results:

pEC50 (HarmOR12; [2]): 4.10
pEC50 (HarmOR36; HarmOR36, read-out: EC50): 5.33
Compound: CC(C)=CCCC(C)CCO (stereo not drawn) [β-Citronellol]

pEC50 (HarmOR31): 5.09
Compound: CCCCCC1CCCC(=O)O1 (stereo not shown) [δ-Decanolactone]

pEC50 (HarmOR12; [2]): 4.86
pEC50 (HarmOR36; HarmOR36, read-out: EC50): 5.94
Compound: C=C[C@](C)(O)CCC=C(C)C [(-)-Linalool]

pEC50 (HarmOR52; HarmOR52, dose response in oocytes, unit M, read-out: EC50): 4.77
Compound: CC1(C)[C@H]2CC=C(CO)[C@@H]1C2 [(1R)-(-)-Myrtenol]

pEC50 (HarmOR40): 4.56
pEC50 (HarmOR12): 4.56
Compound: CC(C)=CCC/C(C)=C/CO [Geraniol]
